Measurements reported in ChEMBL document CHEMBL1201862, “PubChem BioAssay data set” (2004).
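Protocol summary: plate cells (96-well), add compound at 5 concentrations, incubate 48 h, interpolate endpoints linearly. GI50 marks 50% less growth.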 Activity calls are given as the source filed them. Rule as the data show it: active = GI50 up to about 1.1 µM and inactive = higher.

Tests used:
Test in all cases: inhibition of tumour cell growth, NCI panel, 48 h
HCT-15 = test system: HCT-15
HOP-62 = test system: HOP-62
Hs-578T = test system: Hs-578T
LOX IMVI = test system: LOX IMVI
MCF7 = test system: MCF7
MDA-MB-435 = test system: MDA-MB-435
NCI-H226 = test system: NCI-H226
NCI-H23 = test system: NCI-H23
NCI-H460 = test system: NCI-H460
OVCAR-4 = test system: OVCAR-4
OVCAR-8 = test system: OVCAR-8
RPMI-8226 = test system: RPMI-8226
RXF 393 = test system: RXF 393
SF-268 = test system: SF-268
SF-295 = test system: SF-295
SK-OV-3 = test system: SK-OV-3
SR = test system: SR
UACC-257 = test system: UACC-257
UACC-62 = test system: UACC-62
UO-31 = test system: UO-31

SMILES	GI50 (HCT-15) [µM]	GI50 (HOP-62)	GI50 (Hs-578T)	GI50 (LOX IMVI)	GI50 (MCF7)	GI50 (MDA-MB-435)	GI50 (NCI-H226)	GI50 (NCI-H23)	GI50 (NCI-H460)	GI50 (OVCAR-4)	GI50 (OVCAR-8)	GI50 (RPMI-8226)	GI50 (RXF 393)	GI50 (SF-268)	GI50 (SF-295)	GI50 (SK-OV-3)	GI50 (SR)	GI50 (UACC-257)	GI50 (UACC-62)	GI50 (UO-31)
N#CC(C#N)=Cc1c[nH]c(=O)[nH]c1=O	> 100	> 100 µM (inactive)	> 100 µM (inactive)	> 100 µM (inactive)	> 100 µM (inactive)	> 100 µM (inactive)	> 100 µM (inactive)	> 100 µM (inactive)	> 100 µM (inactive)	> 100 µM (inactive)	> 100 µM (inactive)	> 100 µM (inactive)	> 100 µM (inactive)	> 100 µM (inactive)	> 100 µM (inactive)	> 100 µM (inactive)	0.152 µM (active)	> 100 µM (inactive)	> 100 µM (inactive)	> 100 µM (inactive)
CCOC(=O)C1=CN/C(=C(/C)C(=O)OC)SC1C(=O)OCC (stereo not given)	> 100	> 100 µM (inactive)	> 100 µM (inactive)	> 100 µM (inactive)	> 93.5 µM (inactive)	> 100 µM (inactive)	> 100 µM (inactive)	> 100 µM (inactive)	> 90.4 µM (inactive)	> 100 µM (inactive)	> 100 µM (inactive)	68.9 µM (inactive)	> 100 µM (inactive)	> 100 µM (inactive)	> 100 µM (inactive)	> 100 µM (inactive)	47.8 µM (inactive)	> 100 µM (inactive)	> 100 µM (inactive)	> 78.5 µM (inactive)
NC(=O)CCSC(CC(=O)c1ccc(Cl)cc1)c1ccc(Cl)cc1 (stereo not given)	10.5	28.1 µM (inactive)	46.5 µM (inactive)	12.1 µM (inactive)	5.08 µM (inactive)	16 µM (inactive)	36 µM (inactive)	32.4 µM (inactive)	35.9 µM (inactive)	16.8 µM (inactive)	16.3 µM (inactive)	2.21 µM (inactive)	17.9 µM (inactive)	27.8 µM (inactive)	25.2 µM (inactive)	38.1 µM (inactive)	4.06 µM (inactive)	27.7 µM (inactive)	16.8 µM (inactive)	26.7 µM (inactive)
CCCCCCc1ccc(C(=O)NO)cc1	12.6	34.2 µM (inactive)	> 100 µM (inactive)	17.2 µM (inactive)	59.3 µM (inactive)	53.5 µM (inactive)	24.4 µM (inactive)	28.3 µM (inactive)	25 µM (inactive)	20.4 µM (inactive)	13.1 µM (inactive)	12.6 µM (inactive)	41.2 µM (inactive)	25.3 µM (inactive)	40.6 µM (inactive)	40.2 µM (inactive)	9.98 µM (inactive)	44.7 µM (inactive)	24.9 µM (inactive)	15.7 µM (inactive)
Nc1ncnc2c1nc(-c1ccccc1)n2C1OC(CO)C(O)C1O (stereo not given)	> 100	> 100 µM (inactive)	> 100 µM (inactive)	> 100 µM (inactive)	> 100 µM (inactive)	> 100 µM (inactive)	> 100 µM (inactive)	> 100 µM (inactive)	> 100 µM (inactive)	> 100 µM (inactive)	> 100 µM (inactive)	> 100 µM (inactive)	> 100 µM (inactive)	> 100 µM (inactive)	> 100 µM (inactive)	> 100 µM (inactive)	> 100 µM (inactive)	> 100 µM (inactive)	> 100 µM (inactive)	> 100 µM (inactive)
